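Results reflect a 48-hour exposure of cells in 96-well plates to compound at five concentrations. GI50: concentration for 50% inhibition of growth. The concentration for full growth arrest is given as TGI.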
Columns and labels:
Experiment in all cases: NCI-60 cell line screen, 48 h
[1] = system: 786-0 renal
[2] = system: A498 renal
[3] = system: A549 NSCLC
[4] = system: ACHN renal
[5] = system: BT-549 breast
[6] = system: CAKI-1 renal
[7] = system: CCRF-CEM leukemia
[8] = system: COLO 205 colon
[9] = system: DU-145 prostate
[10] = system: EKVX NSCLC
[11] = system: HCC-2998 colon
[12] = system: HCT-116 colon
[13] = system: HCT-15 colon
[14] = system: HL-60(TB) leukemia
[15] = system: HOP-62 NSCLC
[16] = system: HOP-92 NSCLC
[17] = system: HS 578T breast
[18] = system: HT29 colon
[19] = system: IGROV1 ovarian
[20] = system: K-562 leukemia
[21] = system: KM12 colon
[22] = system: LOX IMVI melanoma
[23] = system: M14 melanoma
[24] = system: MALME-3M melanoma
[25] = system: MCF7 breast
[26] = system: MDA-MB-231 breast
[27] = system: MDA-MB-435
[28] = system: MOLT-4 leukemia
[29] = system: NCI-H226 lung
[30] = system: NCI-H23 lung
[31] = system: NCI-H460 lung
[32] = system: NCI-H522 lung
[33] = system: NCI/ADR-RES ovarian
[34] = system: OVCAR-3 ovarian
[35] = system: OVCAR-4 ovarian
[36] = system: OVCAR-5 ovarian
[37] = system: OVCAR-8 ovarian
[38] = system: PC-3 prostate
[39] = system: RPMI-8226 leukemia
[40] = system: RXF 393 renal
[41] = system: SF-268 CNS
[42] = system: SF-295 CNS
[43] = system: SF-539 CNS
[44] = system: SK-MEL-2 melanoma
[45] = system: SK-MEL-28 melanoma
[46] = system: SK-MEL-5 melanoma
[47] = system: SK-OV-3 ovarian
[48] = system: SN12C renal
[49] = system: SNB-19 CNS
[50] = system: SNB-75 CNS
[51] = system: SW-620 colon
[52] = system: T-47D breast
[53] = system: TK-10 renal
[54] = system: U251 CNS
[55] = system: UACC-62 melanoma
[56] = system: UO-31 renal

N#Cc1c(-c2ccc(Cl)cc2)csc1NC(=O)Nc1ccc(Cl)c(C(F)(F)F)c1
GI50 [1]: 3180 nM
TGI [1]: 13400 nM
GI50 [2]: 536 nM
TGI [2]: 5680 nM
GI50 [3]: 630 nM
TGI [3]: 12400 nM
GI50 [4]: 234 nM
TGI [4]: 5180 nM
GI50 [5]: 1210 nM
TGI [5]: 4540 nM
GI50 [6]: 691 nM
TGI [6]: 5570 nM
GI50 [7]: 243 nM
TGI [7]: 7670 nM
GI50 [8]: 895 nM
TGI [8]: 2580 nM
GI50 [9]: 527 nM
TGI [9]: 11200 nM
GI50 [10]: 385 nM
TGI [10]: > 50000 nM
GI50 [11]: 1330 nM
TGI [11]: 17100 nM
GI50 [12]: 224 nM
TGI [12]: 6420 nM
GI50 [13]: 208 nM
TGI [13]: 5400 nM
GI50 [14]: 793 nM
TGI [14]: 2110 nM
GI50 [15]: 1010 nM
TGI [15]: 4420 nM
GI50 [16]: 222 nM
TGI [16]: 2090 nM
GI50 [17]: 1360 nM
TGI [17]: 8240 nM
GI50 [18]: 560 nM
TGI [18]: 3540 nM
GI50 [19]: 626 nM
TGI [19]: 18700 nM
GI50 [20]: 177 nM
TGI [20]: 6270 nM
GI50 [21]: 251 nM
TGI [21]: 6960 nM
GI50 [22]: 1140 nM
TGI [22]: 7380 nM
GI50 [23]: 1140 nM
TGI [23]: 8350 nM
GI50 [24]: 1010 nM
TGI [24]: 3940 nM
GI50 [25]: 229 nM
TGI [25]: 11100 nM
GI50 [26]: 995 nM
TGI [26]: 6240 nM
GI50 [27]: 1490 nM
TGI [27]: > 50000 nM
GI50 [28]: 605 nM
TGI [28]: 5060 nM
GI50 [29]: 1120 nM
TGI [29]: 12400 nM
GI50 [30]: 201 nM
TGI [30]: 16700 nM
GI50 [31]: 209 nM
TGI [31]: 1200 nM
GI50 [32]: 121 nM
TGI [32]: 550 nM
GI50 [33]: 536 nM
TGI [33]: 13400 nM
GI50 [34]: 262 nM
TGI [34]: 1470 nM
GI50 [35]: 691 nM
TGI [35]: 3460 nM
GI50 [36]: 4770 nM
TGI [36]: > 50000 nM
GI50 [37]: 388 nM
TGI [37]: 15700 nM
GI50 [38]: 161 nM
TGI [38]: 2040 nM
GI50 [39]: 153 nM
TGI [39]: 1140 nM
GI50 [40]: 2050 nM
TGI [40]: 17400 nM
GI50 [41]: 1290 nM
TGI [41]: 21300 nM
GI50 [42]: 326 nM
TGI [42]: 1870 nM
GI50 [43]: 1500 nM
TGI [43]: 6960 nM
GI50 [44]: 872 nM
TGI [44]: 7350 nM
GI50 [45]: 1850 nM
TGI [45]: 40100 nM
GI50 [46]: 639 nM
TGI [46]: 3700 nM
GI50 [47]: 2490 nM
TGI [47]: 14400 nM
GI50 [48]: 348 nM
TGI [48]: > 50000 nM
GI50 [49]: 1270 nM
TGI [49]: 35200 nM
GI50 [50]: 1360 nM
TGI [50]: 7720 nM
GI50 [51]: 255 nM
TGI [51]: 2950 nM
GI50 [52]: 106 nM
TGI [52]: 696 nM
GI50 [53]: 757 nM
TGI [53]: 11100 nM
GI50 [54]: 607 nM
TGI [54]: 1910 nM
GI50 [55]: 326 nM
TGI [55]: 8640 nM
GI50 [56]: 1470 nM
TGI [56]: > 50000 nM
